Results taken from ChEMBL document CHEMBL5608162, “Design, synthesis and biological evaluation of 6-chloro-quinolin-2-one derivatives as novel FXIa inhibitors” (Bioorg Med Chem Lett, 2024).
≈ marks a conversion by molar mass, not a printed value.

How the values were obtained:
[1] = AUC in iv dosed rat; format: ADME, organism-based; conditions: in vivo
[2] = Solubility of compound at pH 8; format: physicochemical; conditions: buffer
[3] = Volume of distribution at steady state in iv dosed rat; format: ADME, organism-based; conditions: in vivo, read-out: Vdss
[4] = Half life in iv dosed rat; format: ADME, organism-based; conditions: in vivo
[5] = Tmax in iv dosed rat; format: ADME, organism-based; conditions: in vivo
[6] = Cmax in iv dosed rat; format: ADME, organism-based; conditions: in vivo

Description for Plasma: Anticoagulation activity in plasma (unknown origin) assessed as concentration required for twice the activated partial thromboplastin time

Structure (SMILES)	2aPTT (Plasma)	also measured
CC[C@@H](C(=O)Nc1ccc(C(N)=O)c(F)c1)n1cc(OC)c(-c2cc(Cl)ccc2-n2cc(C(F)(F)F)nn2)cc1=O	3.8 µM	–
CN(Cc1cc(=O)[nH]c2ccc(Cl)cc12)C(=O)[C@H](Cc1ccc(NC(=O)C2CCCC2)cc1)NC(=O)c1ccc(C(=O)O)s1	11.2 µM	–
CC1CC1C(=O)Nc1ccc(C[C@H](NC(=O)c2ccc(C(=O)O)s2)C(=O)N(C)Cc2cc(=O)[nH]c3ccc(Cl)cc23)cc1 (stereo not given in full)	6.8 µM	AUC [1]: 313 ng·h/mL; solubility [2]: Soluble; Vd [3]: 40 L/kg; half-life [4]: 48.6 min; Tmax [5]: 1.2 min; Cmax [6]: 2120 ng/mL
CN(Cc1cc(=O)[nH]c2ccc(Cl)cc12)C(=O)[C@H](Cc1ccc(NC(=O)C2CCCCC2)cc1)NC(=O)c1ccc(C(=O)O)s1	14 µM	–
CN(Cc1cc(=O)[nH]c2ccc(Cl)cc12)C(=O)[C@H](Cc1ccc(NC(=O)C2CC2)cc1)NC(=O)c1ccc(C(=O)O)s1	6.9 µM	–
COC(=O)Nc1ccc(C(=O)N[C@@H](Cc2ccccc2)C(=O)N(C)Cc2cc(=O)[nH]c3ccc(Cl)cc23)cc1	16.7 µM	solubility ([2]; read-out: solubility): 17.3 µg/mL (≈ 31.6 µM)
CN(Cc1cc(=O)[nH]c2ccc(Cl)cc12)C(=O)[C@H](Cc1ccc(NC(=O)C2CC2(C)C)cc1)NC(=O)c1ccc(C(=O)O)s1 (stereo not given in full)	9.8 µM	–
CN(Cc1cc(=O)[nH]c2ccc(Cl)cc12)C(=O)[C@H](Cc1ccc(NC(=O)C2CCC2)cc1)NC(=O)c1ccc(C(=O)O)s1	13.3 µM	–
